The compounds below were run on BMDC primary cells (assay: Luc mRNA LNP transfection on BMDC primary cells (Embodiment 21, Table 9)). Conditions: 16 h, ONE-Glo Luciferase.
Type: cell-based, C57BL/6 mice
Protocol: Preparation method: the same as that in Embodiment 17.
Animal preparation: 6-week-old female C57BL/6 mice with the body weight about 20 g were selected. A feeding environment was an SPF stage feeding room. Animal tests were strictly performed according to the guide of the national health institute and the animal ethics requirements.
Cell acquisition: C57BL/6 mice were killed through cervical dislocation, and were soaked for 5 min in 75% ethyl alcohol. Dissection was performed to obtain thigh and calf tibiae of the mice. Attached muscles were removed to expose sclerotin. Then, bone marrow in tibiae was blown out by using a 1 mL injector sucked with PBS. After the bone marrow was blown away, impurities were filtered away by a 50 μm filter screen. A red blood cell lysis buffer (3-4 mL) was added into an obtained filtrate. Then, after placement for 5 min, 800 g centrifugation was performed for 5 min to remove a supernatant. The obtained cells were placed into a 1640 culture medium (containing 10% fetal calf serum, 20 ng/mL GMCSF and 10 ng/mL IL4) to be resuspended, and were inoculated into a 6-well plate at an inoculation density of 100000 cells/ml culture medium. The materials were placed into a 37° C. cell incubator containing 5% CO2. Half liquid change was performed once every 2 days. Suspended cells and loose wall attached cells were collected on the seventh day, and were inoculated to a 96-well all-white ELISA plate at the inoculation density of 20000 cells per well, and the volume of a culture medium was 100 μL.
Cell transfection: lipid nanoparticles coated with luciferase mRNA were added into a 96-well white ELISA plate laid with primary cells. The adding volume of the mRNA lipid nanoparticles in each well was controlled to be 10 μL. Then, the materials were put into a 37° C. incubator containing 5% CO2 for 16 h.
Transfection efficiency detection: 20 μL of a substrate ONE-Glo™ Luciferase was added into each well of a 96-well all-white ELISA plate, and after 1 min, detection was performed by a multifunctional or multimode microplate reader.
In the case of `CCCCCCCCCCCCCCC(COC(=O)C(CCCCCCC)CCCCCCC)OC(=O)CCCCN(C)C` (stereo not shown) [E11C114A11], the Luciferase luminescence intensity is reported as 6.5E+04.
For `CCCCCCCCCCCC(COC(=O)C(CCCC)CCCCCCCCCC)OC(=O)CCCN(C)C` (stereo not shown) [E8C104A9], the Luciferase luminescence intensity was 3.7E+04.
Work on `CCCCCCCCCCCC(COC(=O)C(CCCCCCCCC)CCCCCCCCC)OC(=O)CCCCN(C)C` (stereo not shown) [E8C116A11] yielded a Luciferase luminescence intensity of 5.0E+04.
Work on `CCCCCCCCCCCCCC(COC(=O)C(CCCCC)CCCCCCCCCCC)OC(=O)CCCN(C)C` (stereo not shown) [E10C111A9] yielded a Luciferase luminescence intensity of 3.7E+04.
In the case of `CCCCCCCCCCC(CCCC)CC(=O)OCC(CCCCCCCC)OC(=O)CCCN(C)C` (stereo not shown) [E5C119A9], the Luciferase luminescence intensity is reported as 4.1E+04.
With `CCCCCCCCCCCCC(COC(=O)C(CCCCCCC)CCCCCCC)OC(=O)CCCCN(C)C` (stereo not shown) [E9C114A11] the Luciferase luminescence intensity was 8.5E+04.
Compound `CCCCCCCCCCCCCC(COC(=O)C(CCCCCCCC)CCCCCCCC)OC(=O)CCCN(C)C` (stereo not shown) [E10C115A9] has a Luciferase luminescence intensity of 4.4E+04.
`CCCCCCCCCCC(COC(=O)CC(CCCCCCC)CCCCCCC)OC(=O)CCCCN(C)C` (stereo not shown) [E7C128A11] showed a Luciferase luminescence intensity of 3.6E+04.
With `CCCCCCCCCCCCCC(COC(=O)C(CCCCCCC)CCCCCCC)OC(=O)CCCN(C)C` (stereo not shown) [E10C114A9] the Luciferase luminescence intensity was 4.3E+04.
`CCCCCCCCCC(CCCCCCCCC)C(=O)OCC(CCCCCC)OC(=O)CCCCN(C)C` (stereo not shown) [E3C116A11] was tested, and the Luciferase luminescence intensity was 4.4E+04.
Compound `CCCCCCCCCCCCC(COC(=O)C(CCCCCCCC)CCCCCCCC)OC(=O)CCCCN(C)C` (stereo not shown) [E9C115A11] has a Luciferase luminescence intensity of 1.9E+05.
`CCCCCCCCCCCCC(COC(=O)C(CCCCCCC)CCCCCCC)OC(=O)CCCN(C)C` (stereo not shown) [E9C114A9] gave a Luciferase luminescence intensity of 9.1E+04.
`CCCCCCCCC(COC(=O)CC(CCCCCCC)CCCCCCC)OC(=O)CCCCN(C)C` (stereo not shown) [E5C128A11] was tested, and the Luciferase luminescence intensity was 4.3E+04.
Compound `CCCCCCCCCC(CCCCCCCCC)C(=O)OCC(CCCCCCCC)OC(=O)CCCCN(C)C` (stereo not shown) [E5C116A11] has a Luciferase luminescence intensity of 6.2E+04.
With `CCCCCCCCCCCCCCC(COC(=O)C(CCCCC)CCCCCCCCC)OC(=O)CCCCN(C)C` (stereo not shown) [E11C109A11] the Luciferase luminescence intensity was 4.8E+04.
`CCCCCCCCCCCCC(COC(=O)C(CCCCC)CCCCCCCCC)OC(=O)CCCN(C)C` (stereo not shown) [E9C109A9] gave a Luciferase luminescence intensity of 3.6E+04.
With `CCCCCCCCCCCCC(COC(=O)CC(CCCCCCC)CCCCCCC)OC(=O)CCCN(C)C` (stereo not shown) [E9C128A9] the Luciferase luminescence intensity was 3.7E+04.
`CCCCCCCCCCCC(COC(=O)C(CCCCCCCC)CCCCCCCC)OC(=O)CCCCN(C)C` (stereo not shown) [E8C115A11] showed a Luciferase luminescence intensity of 1.9E+05.
In the case of `CCCCCCCCC(COC(=O)C(CCCCCCCC)CCCCCCCC)OC(=O)CCCN(C)C` (stereo not shown) [E5C115A9], the Luciferase luminescence intensity is reported as 2.7E+04.
In the case of `CCCCCCCCCCC(COC(=O)C(CCCCCCC)CCCCCCC)OC(=O)CCCCN(C)C` (stereo not shown) [E7C114A11], the Luciferase luminescence intensity is reported as 9.9E+04.
`CCCCCCCCCCC(COC(=O)CC(CCCCC)CCCCCCCCC)OC(=O)CCCN(C)C` (stereo not shown) [E7C123A9] gave a Luciferase luminescence intensity of 4.3E+04.
`CCCCCCCCCCC(CCCC)C(=O)OCC(CCCCCCCC)OC(=O)CCCN(C)C` (stereo not shown) [E5C104A9] showed a Luciferase luminescence intensity of 5.2E+04.
With `CCCCCCCCCCCC(COC(=O)C(CCCCC)CCCCCCCCCCC)OC(=O)CCCN(C)C` (stereo not shown) [E8C111A9] the Luciferase luminescence intensity was 4.6E+04.
`CCCCCCCCCCCCCC(COC(=O)CC(CCCCCCC)CCCCCCC)OC(=O)CCCCN(C)C` (stereo not shown) [E10C128A11] was tested, and the Luciferase luminescence intensity was 4.7E+04.
Compound `CCCCCCCCCCCC(COC(=O)C(CCCCCCC)CCCCCCC)OC(=O)CCCN(C)C` (stereo not shown) [E8C114A9] has a Luciferase luminescence intensity of 6.8E+04.
For `CCCCCCCCCCCCCCC(COC(=O)C(CCCCCCC)CCCCCCC)OC(=O)CCCN(C)C` (stereo not shown) [E11C114A9], the Luciferase luminescence intensity was 4.5E+04.
Work on `CCCCCCCCCCCCC(COC(=O)C(CCCCC)CCCCCCCCC)OC(=O)CCCCN(C)C` (stereo not shown) [E9C109A11] yielded a Luciferase luminescence intensity of 3.6E+04.
For `CCCCCCCCCCCCCCC(COC(=O)CC(CCCCCC)CCCCCCCC)OC(=O)CCCN(C)C` (stereo not shown) [E11C126A9], the Luciferase luminescence intensity was 3.6E+04.
With `CCCCCCCCCCCC(COC(=O)CC(CCCCC)CCCCCCCCC)OC(=O)CCCCN(C)C` (stereo not shown) [E8C123A11] the Luciferase luminescence intensity was 7.1E+04.
Work on `CCCCCCCCCCCC(COC(=O)CC(CCCCCCC)CCCCCCC)OC(=O)CCCCN(C)C` (stereo not shown) [E8C128A11] yielded a Luciferase luminescence intensity of 3.5E+04.
For `CCCCCCCCCC(CCCCC)C(=O)OCC(CCCCCCCC)OC(=O)CCCN(C)C` (stereo not shown) [E5C109A9], the Luciferase luminescence intensity was 3.9E+03.
`CCCCCCCCCCCCCCC(COC(=O)C(CCCCC)CCCCCCCCC)OC(=O)CCCN(C)C` (stereo not shown) [E11C109A9] was tested, and the Luciferase luminescence intensity was 4.3E+04.
`CCCCCCCCCCC(COC(=O)CC(CCCCCC)CCCCCCCC)OC(=O)CCCCN(C)C` (stereo not shown) [E7C126A11] showed a Luciferase luminescence intensity of 3.9E+04.
For `CCCCCCCCCCCCCC(COC(=O)C(CCCCCCC)CCCCCCC)OC(=O)CCCCN(C)C` (stereo not shown) [E10C114A11], the Luciferase luminescence intensity was 7.6E+04.
Work on `CCCCCCCCCCCC(COC(=O)C(CCCCC)CCCCCCCCC)OC(=O)CCCN(C)C` (stereo not shown) [E8C109A9] yielded a Luciferase luminescence intensity of 4.8E+04.
`CCCCCCCCCCCCC(COC(=O)CC(CCCCC)CCCCCCCCC)OC(=O)CCCCN(C)C` (stereo not shown) [E9C123A11] gave a Luciferase luminescence intensity of 5.1E+04.
With `CCCCCCCCCCCCC(CCCC)C(=O)OCC(CCCCCCCCCC)OC(=O)CCCN(C)C` (stereo not shown) [E7C106A9] the Luciferase luminescence intensity was 3.9E+04.
With `CCCCCCCCC(COC(=O)CC(CCCCCCC)CCCCCCC)OC(=O)CCCN(C)C` (stereo not shown) [E5C128A9] the Luciferase luminescence intensity was 3.9E+04.
With `CCCCCCCCCCC(COC(=O)CC(CCCCCCC)CCCCCCC)OC(=O)CCCN(C)C` (stereo not shown) [E7C128A9] the Luciferase luminescence intensity was 3.5E+04.
`CCCCCCCCCCCCCCC(COC(=O)C(CCCCCCCC)CCCCCCCC)OC(=O)CCCN(C)C` (stereo not shown) [E11C115A9] was tested, and the Luciferase luminescence intensity was 4.9E+04.
In the case of `CCCCCCCCC(COC(=O)C(CCCCCCC)CCCCCCC)OC(=O)CCCCN(C)C` (stereo not shown) [E5C114A11], the Luciferase luminescence intensity is reported as 4.6E+04.
Work on `CCCCCCCCC(COC(=O)C(CCCCCCCC)CCCCCCCC)OC(=O)CCCCN(C)C` (stereo not shown) [E5C115A11] yielded a Luciferase luminescence intensity of 1.1E+05.
For `CCCCCCCCCCCCCC(COC(=O)C(CCCCC)CCCCCCCCC)OC(=O)CCCCN(C)C` (stereo not shown) [E10C109A11], the Luciferase luminescence intensity was 3.5E+04.
`CCCCCCCCCCCCC(COC(=O)C(CCCC)CCCCCCCCCC)OC(=O)CCCCN(C)C` (stereo not shown) [E9C104A11] was tested, and the Luciferase luminescence intensity was 4.4E+04.
Work on `CCCCCCCCCCCCC(COC(=O)C(CCCCC)CCCCCCCCCCC)OC(=O)CCCCN(C)C` (stereo not shown) [E9C111A11] yielded a Luciferase luminescence intensity of 3.9E+04.
`CCCCCCCCCCCCCC(COC(=O)C(CCCC)CCCCCCCCCCCC)OC(=O)CCCN(C)C` (stereo not shown) [E10C106A9] gave a Luciferase luminescence intensity of 4.2E+04.
Work on `CCCCCCCCCCCCCC(COC(=O)C(CCCCCCCC)CCCCCCCC)OC(=O)CCCCN(C)C` (stereo not shown) [E10C115A11] yielded a Luciferase luminescence intensity of 8.2E+04.
For `CCCCCCCCCCC(CCCC)C(=O)OCC(CCCCCCCC)OC(=O)CCCCN(C)C` (stereo not shown) [E5C104A11], the Luciferase luminescence intensity was 4.0E+04.
`CCCCCCCCCCCCC(COC(=O)CC(CCCCCCC)CCCCCCC)OC(=O)CCCCN(C)C` (stereo not shown) [E9C128A11] showed a Luciferase luminescence intensity of 3.5E+04.
`CCCCCCCCCCCC(COC(=O)C(CCCCCCC)CCCCCCC)OC(=O)CCCCN(C)C` (stereo not shown) [E8C114A11] showed a Luciferase luminescence intensity of 1.3E+05.
Compound `CCCCCCCCCCCCC(COC(=O)C(CCCC)CCCCCCCCCC)OC(=O)CCCN(C)C` (stereo not shown) [E9C104A9] has a Luciferase luminescence intensity of 3.6E+04.
Compound `CCCCCCCCCCCCCC(COC(=O)CC(CCCCCCC)CCCCCCC)OC(=O)CCCN(C)C` (stereo not shown) [E10C128A9] has a Luciferase luminescence intensity of 3.8E+04.
With `CCCCCCCCCCCCCCC(COC(=O)C(CCCCCCCC)CCCCCCCC)OC(=O)CCCCN(C)C` (stereo not shown) [E11C115A11] the Luciferase luminescence intensity was 6.3E+04.
`CCCCCCCCCCCC(COC(=O)CC(CCCCCCC)CCCCCCC)OC(=O)CCCN(C)C` (stereo not shown) [E8C128A9] showed a Luciferase luminescence intensity of 3.9E+04.
With `CCCCCCCCCCCC(COC(=O)C(CCCCCCCC)CCCCCCCC)OC(=O)CCCN(C)C` (stereo not shown) [E8C115A9] the Luciferase luminescence intensity was 6.0E+04.
